Results published in patent US20250177357A1, “METHODS FOR TREATING HYPERTROPHIC CARDIOMYOPATHY” (priority 2021, published 2025).

Columns and labels:
Type in all cases: in vivo, human
[1] = Phase 1 plasma pharmacokinetics, multiple-ascending dose cohorts; details: for CLss/F, mean ± SD: n = 6
Method: Multiple-ascending dose (MAD) cohorts. The MAD cohorts also used a randomized, double-blind, placebo-controlled, sequential design.
Pharmacokinetic analyses. For all study groups, blood samples for PK assessment were obtained pre-dose, up to 12 times daily on day 1, and then at regular intervals throughout the study. Blood samples were collected according to the following schedule: SAD Cohorts: Day 1: pre-dose and 0.25, 0.5, 1, 1.5, 2, 2.5, 3, 4, 6, 8, 12, 16, 24, 36, 48, 72, 96, and 216 h post dose. MAD Cohorts (14-day Dosing): Day 1: pre-dose and 0.25, 0.5, 1, 1.5, 2, 2.5, 3, 4, 6, 8, and 12 h post dose; Days 2, 4, 5, 6, and 9: pre-dose (corresponding to trough samples following dosing on days 1, 3, 4, 5, and 8) and 1.5 h post dose; Days 3, 7, 8, 10, 11, 12, and 13: pre-dose (corresponding to trough samples following dosing on days 2, 6, 7, 9, 10, 11, and 12); Day 14: pre-dose and 0.25, 0.5, 1.5, 2, 2.5, 3, 4, 6, 8, 12, 16, 24, 36, 48, 72, and 168 h post dose. MAD Cohort (17-Day Dosing): Day 1: pre-dose and 0.25, 0.5, 1, 1.5, 2, 2.5, 3, 4, 6, 8, and 12 h post dose; Days 2, 4, 5, 6, and 9: pre-dose (corresponding to trough samples following dosing on days 1, 3, 4, 5, and 8) and 1.5 h post dose; Days 3, 7, 8, 10, 11, 12, 13, 14, 15, and 16: pre-dose (corresponding to trough samples following dosing on days 2, 6, 7, 9, 10, 11, and 12); Day 17: pre-dose and 0.25, 0.5, 1.5, 2, 2.5, 3, 5, 7, 9, 12, 24, 36, 48, 72, and 168 h post dose. CYPD6-PM Cohort: Day 1: pre-dose and 0.25, 0.5, 1, 1.5, 2, 2.5, 3, 4, 6, 8, 12, 16, 24, 36, 48, 72, 96, 216, 312, and 552 h post dose. Food-Effect Cohort: Day 1: pre-dose and 0.25, 0.5, 1, 1.5, 2, 2.5, 3, 4, 6, 8, 12, 16, 24, 36, 48, 72, 96, 144, and 216 h post dose. Standard non-compartmental methods were used to calculate PK parameters using Phoenix® WinNonlin® Version 7.0; actual sample collection times were utilized.
For the MAD cohort, the parameters were AUC24 and Cmax on day 1, plus AUC to the […] (AUCtau) and Cmax on day 14 or 17. The statistical linear relationship between the ln-transformed PK parameters and the ln-transformed dose was verified by including the quadratic (ln Dose)^2 and cubic (ln Dose)^3 effects. […] The dose-proportionality analysis was performed using SAS® PROC MIXED.
An analysis of variance (ANOVA) model was conducted separately for each dose level; day was included as the fixed effect. Helmert contrasts were developed such that each time-point was compared with the mean of the subsequent time-points.

[2] = tested on: patients with symptomatic oHCM; assay: Open-label extension trial in oHCM: safety
Source text: An open-label extension clinical trial of CK-274 in patients with symptomatic oHCM was initiated.
Patients who completed the study as described in Example 2 and had not developed atrial fibrillation were eligible to enroll in the study. Echo-guided dose titration based on site reads was managed by the investigator and could occur at any time during the trial, as described below.
Each patient received Dose 1 of CK-274 once daily for 2 weeks. […] Patients were up-titrated to Dose 2 if either of the following conditions were met on echocardiography: (1) resting LVOT-G≥30 mmHg and the biplane LVEF≥50%; or (2) resting LVOT-G<30 mmHg, post-Valsalva LVOT-G≥50 mmHg, and the biplane LVEF≥50%. Otherwise, the patient remained on 5 mg of CK-274. If LVEF was […], treatment was discontinued. If LVEF was <40%, treatment is interrupted.
Ambulatory cardiac monitoring is performed on weeks 48, 96, 144, 192 and 240. Cardiac magnetic resonance is monitored at weeks 48, 144 and 240. (See FIG. 26).

[3] = Phase 1 plasma pharmacokinetics, food-effect cohort; details: single 10 mg
Method: Food-effect cohort. […] Participants were randomized in a 1:1 ratio to 1 of 2 sequences: fasted/fed or fed/fasted.
Pharmacokinetic analyses. For all study groups, blood samples for PK assessment were obtained pre-dose, up to 12 times daily on day 1, and then at regular intervals throughout the study. Blood samples were collected according to the following schedule: SAD Cohorts: Day 1: pre-dose and 0.25, 0.5, 1, 1.5, 2, 2.5, 3, 4, 6, 8, 12, 16, 24, 36, 48, 72, 96, and 216 h post dose. […] CYPD6-PM Cohort: Day 1: pre-dose and 0.25, 0.5, 1, 1.5, 2, 2.5, 3, 4, 6, 8, 12, 16, 24, 36, 48, 72, 96, 216, 312, and 552 h post dose. Food-Effect Cohort: Day 1: pre-dose and 0.25, 0.5, 1, 1.5, 2, 2.5, 3, 4, 6, 8, 12, 16, 24, 36, 48, 72, 96, 144, and 216 h post dose. Standard non-compartmental methods were used to calculate PK parameters using Phoenix® WinNonlin® Version 7.0; actual sample collection times were utilized.

Structure (SMILES): CCc1nc(-c2ccc3c(c2)CC[C@H]3NC(=O)c2cnn(C)c2)no1 [aficamten, (R)—N-(5-(5-ethyl-1,2,4-oxadiazol-3-yl)-2,3-dihydro-1H-inden-1-yl)-1-methyl-1H-pyrazole-4-carboxamide]
- Steady state achieved by the end of day ([1]; 5-mg and 7.5-mg doses once daily): 12 days
- Steady state achieved by the end of day ([1]; 10-mg dose once daily): 10 days
- CLss/F, mean ± SD ([1]; Day 14, 5 mg qd × 14 Days): 3.9 ± 0.9 L/h
- CLss/F, mean ± SD ([1]; Day 14, 10 mg qd × 14 Days): 3.9 ± 0.8 L/h
- CLss/F, mean ± SD ([1]; Day 17, 7.5 mg qd × 17 Days): 3.1 ± 0.7 L/h
- Time within which steady state is achieved ([1]; once-daily dosing): ≤ 2 weeks
- Patients with TEAE Leading to Dose Reduction ([2]; N = 38): 2 (5%)
- Patients with TEAE Leading to Drug Interruption ([2]; N = 38): 1 (3%)
- Patients with at Least One Related TEAE ([2]; N = 38): 8 (21%)
- Patients with at Least One Severe TEAE ([2]; N = 38): 1 (3%)
- Patients with at Least One TEAE ([2]; N = 38): 28 (74%)
- Patients with at Least One TESAE ([2]; N = 38): 2 (5%)
- LVEF of one patient with recurrent alcohol induced atrial fibrillation ([2]; on 15 mg of CK-274): 47%
- Events of LVEF <50% attributed to CK-274 ([2]; open-label extension): no events
- CL/F, mean ± SD ([3]; Fasted, n = 4): 2.8 ± 0.6 L/h
- CL/F, mean ± SD ([3]; Fed, n = 7): 3.1 ± 0.9 L/h
- Increase in Cmax when taken with food ([3]; fed vs fasted): approximately 30%
